Patent US11779572B1, “Methods of treating gastrointestinal stromal tumors” (Deciphera Pharmaceuticals, LLC, priority 2022, dated 2023)
Values after ≈ are worked out from the molar mass of the structure shown. Where two headings read alike, the source gives them in different places.

Columns and labels:
[1] = Unbound fraction / plasma protein binding; assay type: in vitro ADME, human; conditions: human, plasma, oral, 50 mg, healthy participants and participants with hepatic impairment; clinical samples; read-out: mean unbound fraction fu %
From the text: (§1) Both ripretinib and DP-5439 display high binding to plasma proteins in vitro; therefore, clinical samples were collected to investigate the effect of HI on the unbound fraction (fu) % for both analytes. Distributions of individual mean fu % for both ripretinib and DP-5439 show high variability between participants. The ripretinib mean fu % was ≤0.6% in healthy participants and in participants with hepatic impairment. The DP-5439 fu % was ≤0.5% in healthy participants and 0.2% to 1.4% in participants with hepatic impairment. No clear trend could be established between unbound ripretinib and DP-5439 PK parameters and the degrees of HI.

plasma proteins = assay: Unbound fraction / plasma protein binding; assay type: in vitro ADME, human
From the text: as §1

GIST = assay: Clinical study in second-line through fourth-line plus GIST, ≥100 mg daily (Example 2): efficacy; assay type: in vivo, human
Protocol: Results. Data from 178 GIST patients receiving ripretinib at doses of ≥100 mg daily are noted in Table 2. The table includes investigator-assessed objective response rate (ORR) by best response, disease control rate (DCR) and median progression free survival (mPFS), all of which were determined by Response Evaluation Criteria in Solid Tumors (RECIST) version 1.1.
In Table 2, (1) indicates overall number of patients (n=178) remains the same as prior data presented at ESMO 2018; based on additional data cleaning, one patient from each of 2nd line and 4th/≥4th line were reclassified as 3rd line patients; (2) refers to median treatment durations were: 2nd line=44 weeks, 3rd line=48 weeks, 4th line=46 weeks and ≥4th line=29 weeks; (3) refers to including 60 patients who elected for intra-patient dose escalation from 150 mg QD to 150 mg BID; and (4) refers to the number of patients including 60 patients from 4th line.

advanced GIST = assay: Randomized, double-blind, placebo-controlled study of ripretinib in advanced GIST (Example 1): efficacy; assay type: in vivo, human
Protocol: (§2) Patients were randomized 2:1 to either 150 mg of ripretinib or placebo once daily. The primary efficacy endpoint is progression-free survival (PFS) as determined by independent radiologic review using modified Response Evaluation Criteria in Solid Tumors (RECIST). Secondary endpoints as determined by independent radiologic review using modified RECIST include Objective Response Rate (ORR), Time to Tumor Progression (TTP) and Overall Survival (OS).
Results. This study achieved its primary endpoint of improved PFS as determined by blinded independent central radiologic review using modified Response Evaluation Criteria in Solid Tumors (RECIST) version 1.1.
Patients whose disease progressed during the double blind phase of the study were escalated to 150 mg BID ripretinib, continued at the 150 mg QD dose, or discontinued in an open label-phase of the study.

Solubility in buffers = assay type: physicochemical
[2] = system: patients with advanced GIST; assay: Example 1 study: treatment-emergent adverse events, safety; assay type: in vivo, human
Protocol: as §2
The safety of ripretinib and the impact of alopecia and palmar-plantar erythrodysesthesia (PPES) on patient-reported outcomes (PROs) of patients treated in the study described in Example 1 herein are described. […] When stratified by alopecia and PPES, patient reported assessments of function, overall health, and overall quality of life were maintained over time.

CYP2C8 = molecular target: T1, CYP2C8 (Homo sapiens, UniProt P10632); assay: Contribution of CYP enzymes to metabolism, in vitro data; assay type: in vitro ADME; conditions: base model, based on in vitro data
T1 sequence (P10632 1-490): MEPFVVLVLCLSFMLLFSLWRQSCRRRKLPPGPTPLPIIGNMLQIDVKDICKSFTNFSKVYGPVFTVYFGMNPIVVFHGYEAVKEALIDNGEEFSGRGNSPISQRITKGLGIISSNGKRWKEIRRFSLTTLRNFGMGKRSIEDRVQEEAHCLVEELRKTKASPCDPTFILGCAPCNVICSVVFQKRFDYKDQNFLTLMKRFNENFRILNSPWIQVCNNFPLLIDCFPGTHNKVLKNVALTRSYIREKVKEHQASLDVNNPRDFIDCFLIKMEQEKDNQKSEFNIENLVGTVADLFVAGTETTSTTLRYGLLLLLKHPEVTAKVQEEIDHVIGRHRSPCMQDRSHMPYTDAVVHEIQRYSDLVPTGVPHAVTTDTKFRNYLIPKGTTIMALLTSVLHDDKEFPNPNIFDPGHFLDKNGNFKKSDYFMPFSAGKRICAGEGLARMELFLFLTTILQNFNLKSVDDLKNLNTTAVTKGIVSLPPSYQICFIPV
From the text: A PBPK model that included a mechanistic absorption model was developed.

[3] = patients crossed over from placebo to ripretinib

## CCn1c(=O)c(-c2cc(NC(=O)Nc3ccccc3)c(F)cc2Br)cc2cnc(NC)cc21 [ripretinib]
[1]
  fraction unbound: ≤ 0.006
Plasma proteins; in vitro
  binding to plasma proteins: high binding
Plasma proteins; visual assessment
  impact of HI (albumin, ALP, ALT, AST, bilirubin changes) on unbound exposure: did not appear to have an impact
GIST; Fourth-Line (n = 60)
  Disease Control Rate at 3 Months: 73%
  Median Progression Free Survival (mPFS): 30 weeks
  Objective Response Rate by Best Response, includes unconfirmed: 15%
  Objective Response Rate, confirmed only: 8%
GIST; Second-Line (n = 37)
  Disease Control Rate at 3 Months: 81%
  Median Progression Free Survival (mPFS): 42 weeks
  Objective Response Rate, confirmed only: 22%
GIST; Second-Line (n = 37), ≥100 mg daily, RECIST 1.1, investigator
  Objective Response Rate by Best Response, includes unconfirmed: 30%
GIST; Third-Line (n = 31)
  Disease Control Rate at 3 Months: 80%
  Median Progression Free Survival (mPFS): 40 weeks
  Objective Response Rate by Best Response, includes unconfirmed: 23%
  Objective Response Rate, confirmed only: 13%
GIST; ≥Fourth-Line (n = 110)
  Disease Control Rate at 3 Months: 66%
  Median Progression Free Survival (mPFS): 24 weeks
  Objective Response Rate by Best Response, includes unconfirmed: 11%
  Objective Response Rate, confirmed only: 7%
Advanced GIST; 150 mg QD, FIG. 17
  benefit over placebo (PFS, OS), primary Exon 11 and Exon 9 mutation: derive a benefit
Advanced GIST; 150 mg once daily
  OS rate at 12 months: 65.4%
  PFS rate at 6 months: 51%
  reduction of risk of disease progression or death compared to placebo: 85%
Advanced GIST; 150 mg once daily, initial ripretinib arm
  median PFS: 27.6 weeks
Advanced GIST; 150 mg once daily, BICR, modified RECIST 1.1, double-blind cut
  median PFS: 6.3 months
Advanced GIST; 150 mg once daily, BICR, modified RECIST 1.1, double-blind cut, listed as Ripretinib
  median PFS: 6.3 (4.6, 6.9) months
Advanced GIST; FIG. 26A-D
  PFS compared to placebo in subgroups with Exon 9, 11, 13 or 17 KIT mutations: PFS benefit in all assessed patient subgroups
Advanced GIST; double-blind cut
  Overall survival: number of deaths (%): 26 (31)
  PFS by BICR: deaths, number (%): 5 (6)
  PFS by BICR: number of events (%): 51 (60)
  PFS by BICR: progressive disease, number (%): 46 (54)
Advanced GIST; modified RECIST 1.1, double-blind cut
  objective/overall response rate by BICR: 9.4%
Advanced GIST; modified RECIST 1.1, double-blind cut, listed as Ripretinib
  objective/overall response rate by BICR: 9%
Advanced GIST; open-label cut
  Median OS (95% CI): Not Reached
  Median PFS (95% CI): 6.3 (4.6, 8.1) months
  Overall Response Rate by BICR: 12%
  Overall survival: number of deaths (%): 38 (45)
  PFS by BICR: deaths, number (%): 6 (7)
  PFS by BICR: number of events (%): 64 (75)
  PFS by BICR: progressive disease, number (%): 58 (68)
Advanced GIST; [3]
  median OS: 11.6 months
  median PFS: 20.0 weeks
Advanced GIST; patients initially randomized to ripretinib, double-blind cut
  median OS: 15.1 months
Advanced GIST; patients initially randomized to ripretinib, double-blind cut, listed as Ripretinib
  median OS: 15 (12, 15) months
Solubility in buffers
  solubility: pH-dependent solubility
Solubility in buffers; fassgf or other biorelevant, intestinal buffer (pH 6.5), read-out: solubility
  solubility: 123 µg/mL (≈ 241 µM)
Solubility in buffers; simulated gastric fluid, gastric buffer (pH 2.0), read-out: solubility
  solubility: 178 µg/mL (≈ 349 µM)
[2]; female, human, in vivo
  alopecia in females: 56.8%
[2]; human, in vivo
  Grade 3 or 4 TEAE abdominal pain: 7%
  Grade 3 or 4 TEAE hypertension: 7%
  TEAE alopecia (most common TEAE): 51.8%
  patients reporting PPES: 21.2%
  patients with Grade 3 or 4 TEAEs: 42 (49%)
  patients with a TEAE leading to dose interruption: 23.5%
  patients with a TEAE leading to dose reduction: 7.1%
[2]; in vivo
  TEAEs during the crossover period: no safety concerns
  patients with grade 3 PPES: no patients
  serious adverse events of alopecia or PPES: no serious adverse events
[2]; male, human, in vivo
  alopecia in males: 43.2%
[2]; ripretinib arm
  patients with a TEAE leading to death: 5.9%
CYP2C8
  share of metabolism assigned to CYP2C8: 23%
